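These data come from cells grown in 96-well plates and exposed to compound for 48 hours at five concentrations. Abbreviation: GI50, concentration required for 50% inhibition of growth.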 Active and inactive are the calls of the source. Cut-off read from the data, not from the text of the source: active = GI50 up to about 1.1 µM and inactive = higher.
What was measured:
Assay in all cases: NCI anticancer screen, dose series, 48 h
M14 = system: M14
MDA-MB-231 = system: MDA-MB-231
HCT-116 = system: HCT-116
OVCAR-8 = system: OVCAR-8
EKVX = system: EKVX
DU-145 = system: DU-145
MCF7 = system: MCF7
RPMI-8226 = system: RPMI-8226
TK-10 = system: TK-10
HOP-62 = system: HOP-62
SNB-19 = system: SNB-19
IGROV-1 = system: IGROV-1
SF-539 = system: SF-539
OVCAR-5 = system: OVCAR-5
SK-MEL-2 = system: SK-MEL-2
SF-268 = system: SF-268
SK-MEL-28 = system: SK-MEL-28
UACC-62 = system: UACC-62
A549 = system: A549
SR = system: SR
786-0 = system: 786-0
U-251 = system: U-251
SW-620 = system: SW-620
Hs-578T = system: Hs-578T
Malme-3M = system: Malme-3M
HL-60 = system: HL-60
NCI-H460 = system: NCI-H460
PC-3 = system: PC-3
SK-MEL-5 = system: SK-MEL-5
OVCAR-3 = system: OVCAR-3
HT-29 = system: HT-29
NCI/ADR-RES = system: NCI/ADR-RES
UACC-257 = system: UACC-257
RXF 393 = system: RXF 393
SK-OV-3 = system: SK-OV-3
K562 = system: K562
NCI-H522 = system: NCI-H522
NCI-H226 = system: NCI-H226
MDA-N = system: MDA-N
T47D = system: T47D
CCRF-CEM = system: CCRF-CEM
OVCAR-4 = system: OVCAR-4
MOLT-4 = system: MOLT-4
KM12 = system: KM12
BT-549 = system: BT-549
COLO 205 = system: COLO 205
UO-31 = system: UO-31
A498 = system: A498
SF-295 = system: SF-295
SNB-75 = system: SNB-75
HCT-15 = system: HCT-15
SN12C = system: SN12C
MDA-MB-435 = system: MDA-MB-435
CAKI-1 = system: CAKI-1
LOX IMVI = system: LOX IMVI

O=C(NNC(=O)c1ccccc1O)c1cccs1
GI50 (M14): 35.5 µM (inactive)
GI50 (MDA-MB-231): 78.2 µM (inactive)
GI50 (HCT-116): 42.1 µM (inactive)
GI50 (OVCAR-8): 32.1 µM (inactive)
GI50 (EKVX): 34.4 µM (inactive)
GI50 (DU-145): > 100 µM (inactive)
GI50 (MCF7): 52.2 µM (inactive)
GI50 (RPMI-8226): > 100 µM (inactive)
GI50 (TK-10): > 100 µM (inactive)
GI50 (HOP-62): 42.6 µM (inactive)
GI50 (SNB-19): > 100 µM (inactive)
GI50 (IGROV-1): 30.7 µM (inactive)
GI50 (SF-539): > 100 µM (inactive)
GI50 (OVCAR-5): 45 µM (inactive)
GI50 (SK-MEL-2): > 100 µM (inactive)
GI50 (SF-268): 19 µM (inactive)
GI50 (SK-MEL-28): > 100 µM (inactive)
GI50 (UACC-62): 49.8 µM (inactive)
GI50 (A549): 54.1 µM (inactive)
GI50 (SR): 71 µM (inactive)
GI50 (786-0): > 100 µM (inactive)
GI50 (U-251): > 100 µM (inactive)
GI50 (SW-620): 61.5 µM (inactive)
GI50 (Hs-578T): > 100 µM (inactive)
GI50 (Malme-3M): 22.1 µM (inactive)
GI50 (HL-60): 50 µM (inactive)
GI50 (NCI-H460): 56.9 µM (inactive)
GI50 (PC-3): 47.5 µM (inactive)
GI50 (SK-MEL-5): > 100 µM (inactive)
GI50 (OVCAR-3): 23.7 µM (inactive)
GI50 (HT-29): 33.3 µM (inactive)
GI50 (NCI/ADR-RES): 27.8 µM (inactive)
GI50 (UACC-257): > 100 µM (inactive)
GI50 (RXF 393): > 100 µM (inactive)
GI50 (SK-OV-3): 24.4 µM (inactive)
GI50 (K562): > 100 µM (inactive)
GI50 (NCI-H522): 3.51 µM (inactive)
GI50 (NCI-H226): 5.79 µM (inactive)
GI50 (MDA-N): > 100 µM (inactive)
GI50 (T47D): > 100 µM (inactive)
GI50 (CCRF-CEM): > 100 µM (inactive)
GI50 (OVCAR-4): > 100 µM (inactive)
GI50 (MOLT-4): 54.7 µM (inactive)
GI50 (KM12): 39.4 µM (inactive)
GI50 (BT-549): > 100 µM (inactive)
GI50 (COLO 205): 46.5 µM (inactive)
GI50 (UO-31): 50.1 µM (inactive)
GI50 (A498): > 100 µM (inactive)
GI50 (SF-295): 34.2 µM (inactive)
GI50 (SNB-75): 28.3 µM (inactive)
GI50 (HCT-15): 47.8 µM
GI50 (SN12C): > 100 µM (inactive)
GI50 (MDA-MB-435): > 100 µM (inactive)
GI50 (CAKI-1): 79.4 µM (inactive)
GI50 (LOX IMVI): 66.4 µM (inactive)

Reference: ChEMBL document CHEMBL1201862, “PubChem BioAssay data set” (2004)
